In US6482921B1, “Uridyl peptide antibiotic (UPA) derivatives, their synthesis and use” (Essential Therapeutics, Inc., priority 1999, dated 2002):
Values after ≈ are worked out from the molar mass of the structure shown.

How the values were obtained:
Format in all cases: cell-based
[1] = test system: Staphylococcus aureus 8325-4; experiment: MIC broth microdilution, S. aureus 8325-4 (wild type); conditions: S. aureus 8325-4
[2] = test system: Escherichia Coli MC 4100 AcrAB UPA3r; experiment: MIC broth microdilution, E. coli MC 4100 AcrAB UPA3r (ΔAcrAB, UPA resistant); conditions: E. coli AcrAB UPA3^r
[3] = test system: Staphylococcus aureus ATCC 29213; experiment: MIC broth microdilution, S. aureus ATCC 29213 (wild type); conditions: S. aureus ATCC 29213
[4] = test system: Pseudomonas aeruginosa PAM 1154; experiment: MIC broth microdilution, P. aeruginosa PAM 1154 (OprM::Hg); conditions: P. aeruginosa PAM 1154 OprM::Hg
[5] = test system: Pseudomonas aeruginosa PAM 1020; experiment: MIC broth microdilution, P. aeruginosa PAM 1020 (wild type); conditions: P. aeruginosa PAM 1020
Escherichia Coli MC 4100 = experiment: MIC broth microdilution, E. coli MC 4100 (wild type); conditions: E. coli MC 4100
[6] = test system: Pseudomonas aeruginosa PAM 1323; experiment: MIC broth microdilution, P. aeruginosa PAM 1323 (medium level UPA resistance)
Description: Compounds were tested against several panels of bacteria. In a first panel, Table 3, several strains of Pseudomonas aeruginosa, Escherichia coli and Staphylococcus aureus were employed as the target bacteria.
For the bacteria in Table 3, the assay was performed in Mueller-Hinton Broth (MHB) with a final bacterial inoculum of 5×10^5 CFU/ml and a final volume of 100 μl. Control drugs, including imipenem and pacidimycin 4, and the test compounds were prepared at a concentration which was twice the desired final concentration (256 μg/ml). Dilution of the controls and the test compounds was accomplished directly on the test plates by serial 2-fold dilution using a multi-channel pipette. Both a positive and a negative growth control was included in each plate.
The bacterial inocula were prepared as follows. Bacterial strains were grown overnight at 35° C. in MHB. […] The culture was then diluted 1:10 and allowed to grow for an additional one hour at 35° C. in a shaking incubator. The inocula were then prepared by diluting the early log phase (one hour) cultures 1:2000 with fresh MHB. A volume of 50 μl of the inocula was added to each well, resulting in an inoculum of approximately 5×10^5 CFU/ml. The exact inocula were determined by putting 10 μl of 10-fold serial dilution of the bacterial suspensions onto TSA. After overnight incubation at 35° C., colony-forming units were counted manually.
The microtiter plates were incubated for 20 hours at 35° C. and were then read using a microtiterplate reader (Molecular Devices) at 650 nm as well as being visually observed using a microtiterplate reading mirror.

[7] = test system: Pasteurella multocida pm002; experiment: MIC broth microdilution, P. multocida pm002 (wild type)
[8] = test system: Escherichia Coli MC 4100 AcrAB; experiment: MIC broth microdilution, E. coli MC 4100 AcrAB (ΔAcrAB); conditions: E. coli AcrAB
[9] = test system: Pseudomonas aeruginosa PAM 1135; experiment: MIC broth microdilution, P. aeruginosa PAM 1135 (high level UPA resistance); conditions: P. aeruginosa PAM 1135 UPA1^r

1-[5′-[(2S,3S)-N^2-[N-[[(1S)-1-Carboxy-2-indol-3-ylethyl]carbamoyl]-L-alanyl]-N^3-L-3-hydroxyphenylalanyl-N^3-methyl-2,3-diaminobutyramidol-3′,5′-dideoxy-α-L-arabinofuranosyl]uracil [Compound 103]
MIC (μg/ml) Broth microdilution [1]: 256 µg/mL | MIC (μg/ml) Broth microdilution [2]: 32 µg/mL | MIC (μg/ml) Broth microdilution [3]: 512 µg/mL | MIC (μg/ml) Broth microdilution [4]: 8 µg/mL | MIC (μg/ml) Broth microdilution [5]: 16 µg/mL | MIC (μg/ml) Broth microdilution (Escherichia Coli MC 4100): 512 µg/mL | MIC (μg/ml) Broth microdilution [6]: 512 µg/mL | MIC (μg/ml) Broth microdilution [7]: 256 µg/mL | MIC (μg/ml) Broth microdilution [8]: 2 µg/mL | MIC (μg/ml) Broth microdilution [9]: >512 µg/mL

1-[5′-[(2S,3S)-N^3-L-Alanyl-N^2-[(2R)-2-benzyl-N-[(1S)-1-carboxy-2-indol-3-ylethyl]succinimoyl]-N^3-methyl-2,3-diaminobutyramido]-3′,5′-dideoxy-α-L-arabinofuranosyl]uracil [Compound 154]
MIC (μg/ml) Broth microdilution [1]: >512 µg/mL | MIC (μg/ml) Broth microdilution [2]: 128 µg/mL | MIC (μg/ml) Broth microdilution [3]: >512 µg/mL | MIC (μg/ml) Broth microdilution [4]: 8 µg/mL | MIC (μg/ml) Broth microdilution [5]: 64 µg/mL | MIC (μg/ml) Broth microdilution (Escherichia Coli MC 4100): >512 µg/mL | MIC (μg/ml) Broth microdilution [6]: >512 µg/mL | MIC (μg/ml) Broth microdilution [7]: >512 µg/mL | MIC (μg/ml) Broth microdilution [8]: 8 µg/mL | MIC (μg/ml) Broth microdilution [9]: >512 µg/mL

1-[5′-[(2S,3S)-N^3-L-Alanyl-N^2-[N-([(1S)-1-carboxy-phenethyl]carbamoyl]-L-leucinyl]-N^3-methyl-2,3-diaminobutyramido]-3′,5′-dideoxy-α-L-arabinofuranosyl]uracil [Compound 166]
MIC (μg/ml) Broth microdilution [1]: >512 µg/mL | MIC (μg/ml) Broth microdilution [2]: 256 µg/mL | MIC (μg/ml) Broth microdilution [3]: >512 µg/mL | MIC (μg/ml) Broth microdilution [4]: >512 µg/mL | MIC (μg/ml) Broth microdilution [5]: >512 µg/mL | MIC (μg/ml) Broth microdilution (Escherichia Coli MC 4100): >512 µg/mL | MIC (μg/ml) Broth microdilution [6]: >512 µg/mL | MIC (μg/ml) Broth microdilution [7]: 512 µg/mL | MIC (μg/ml) Broth microdilution [8]: 16 µg/mL | MIC (μg/ml) Broth microdilution [9]: >512 µg/mL

1-[5′[(2S,3S)-N^2-[N-[[(1S)-1-Carboxy-4-hydroxyphenethyl]carbamoyl]-L-4-fluorophenylalanyl)-N^3-L-phenylalanyl-N^3-methyl-2,3-diaminobutyramido]-3′,5′-dideoxy-β-L-arabinofuranosyl]uracil [Compound 106]
MIC (μg/ml) Broth microdilution [1]: >512 µg/mL | MIC (μg/ml) Broth microdilution [2]: 512 µg/mL | MIC (μg/ml) Broth microdilution [3]: >512 µg/mL | MIC (μg/ml) Broth microdilution [4]: 64 µg/mL | MIC (μg/ml) Broth microdilution [5]: 32 µg/mL | MIC (μg/ml) Broth microdilution (Escherichia Coli MC 4100): 512 µg/mL | MIC (μg/ml) Broth microdilution [6]: 256 µg/mL | MIC (μg/ml) Broth microdilution [7]: 512 µg/mL | MIC (μg/ml) Broth microdilution [8]: 8 µg/mL | MIC (μg/ml) Broth microdilution [9]: 256 µg/mL

CC(C(NC(=O)C(Cc1ccccc1)NC(=O)NC(Cc1c[nH]c2ccccc12)C(=O)O)C(=O)NCC1CC(O)C(n2ccc(=O)[nH]c2=O)O1)N(C)C(=O)C(N)CCCCN [Compound 147, 1-[5′-[(2S,3S)-N^2-[N-[[(1S)-1-Carboxy-2-indol-3-ylethyl]carbamoyl]-L-phenylalanyl]-N^3-L-lysinyl-N^3-methyl-2,3-diaminobutyramido]-3′,5′-dideoxy-α-L-arabinofuranosyl]uracil]
MIC (μg/ml) Broth microdilution [1]: >512 µg/mL | MIC (μg/ml) Broth microdilution [2]: >512 µg/mL | MIC (μg/ml) Broth microdilution [3]: >512 µg/mL | MIC (μg/ml) Broth microdilution [4]: 16 µg/mL (≈ 18.9 µM) | MIC (μg/ml) Broth microdilution [5]: 32 µg/mL (≈ 37.8 µM) | MIC (μg/ml) Broth microdilution (Escherichia Coli MC 4100): >512 µg/mL | MIC (μg/ml) Broth microdilution [8]: >512 µg/mL | MIC (μg/ml) Broth microdilution [9]: >512 µg/mL

CC(C)C[C@H](NC(=O)N[C@@H](Cc1c[nH]c2ccccc12)C(=O)O)C(=O)N[C@H](C(=O)NC[C@H]1C[C@@H](O)[C@H](n2ccc(=O)[nH]c2=O)O1)[C@H](C)N(C)C(=O)[C@H](C)N [Compound 170, 1-[5′-[(2S,3S)-N^3-L-Alanyl-N^2-[N-[[(1S)-1-carboxy-2-indol-3-ylethyl)carbamoyl]-L-leucinyl]-N^3-methyl-2,3-diaminobutyramido]-3′,5′-dideoxy-α-L-arabinofuranosyl]uracil]
MIC (μg/ml) Broth microdilution [1]: >512 µg/mL | MIC (μg/ml) Broth microdilution [2]: 1 µg/mL (≈ 1.32 µM) | MIC (μg/ml) Broth microdilution [3]: >512 µg/mL | MIC (μg/ml) Broth microdilution [4]: 4 µg/mL (≈ 5.29 µM) | MIC (μg/ml) Broth microdilution [5]: 64 µg/mL (≈ 84.7 µM) | MIC (μg/ml) Broth microdilution (Escherichia Coli MC 4100): 128 µg/mL (≈ 169 µM) | MIC (μg/ml) Broth microdilution [8]: 2 µg/mL (≈ 2.65 µM) | MIC (μg/ml) Broth microdilution [9]: >512 µg/mL

C[C@H](NC(=O)N[C@@H](Cc1c[nH]c2ccccc12)C(=O)O)C(=O)N[C@H](C(=O)NC[C@H]1C[C@@H](O)[C@H](n2ccc(=O)[nH]c2=O)O1)[C@H](C)N(C)C(=O)[C@@H](C)N [Compound 171, 1-[5′-[(2S,3S)-N^3-D-Alanyl-N^2-[N-[[(1S)-1-carboxy-2-indol-3-ylethyl]carbamoyl]-L-alanyl]-N^3-methyl-2,3-diaminobutyramido]-3′,5′-dideoxy-α-L-arabinofuranosyl]uracil]
MIC (μg/ml) Broth microdilution [1]: >512 µg/mL | MIC (μg/ml) Broth microdilution [2]: 128 µg/mL (≈ 179 µM) | MIC (μg/ml) Broth microdilution [3]: >512 µg/mL | MIC (μg/ml) Broth microdilution [4]: 32 µg/mL (≈ 44.8 µM) | MIC (μg/ml) Broth microdilution [5]: 512 µg/mL (≈ 717 µM) | MIC (μg/ml) Broth microdilution (Escherichia Coli MC 4100): >512 µg/mL | MIC (μg/ml) Broth microdilution [8]: 16 µg/mL (≈ 22.4 µM) | MIC (μg/ml) Broth microdilution [9]: >512 µg/mL

C[C@H](N)C(=O)N(C)[C@@H](C)[C@H](NC(=O)[C@H](C)NC(=O)N[C@@H](Cc1c[nH]c2ccccc12)C(=O)O)C(=O)NC[C@@H]1C[C@@H](O)[C@@H](n2ccc(=O)[nH]c2=O)O1 [Compound 172, 1-[5′-[(2S,3S)-N^3-L-Alanyl-N^2-[N-[[(1S)-1-carboxy-2-indol-3-ylethyl]carbamoyl]-L-alanyl]-N^3-methyl-2,3-diaminobutyramido]-3′,5′-dideoxy-α-D-ribofuranosyl]uracil]
MIC (μg/ml) Broth microdilution [1]: >512 µg/mL | MIC (μg/ml) Broth microdilution [2]: 16 µg/mL (≈ 22.4 µM) | MIC (μg/ml) Broth microdilution [3]: 512 µg/mL (≈ 717 µM) | MIC (μg/ml) Broth microdilution [4]: 4 µg/mL (≈ 5.6 µM) | MIC (μg/ml) Broth microdilution [5]: 64 µg/mL (≈ 89.7 µM) | MIC (μg/ml) Broth microdilution (Escherichia Coli MC 4100): 16 µg/mL (≈ 22.4 µM) | MIC (μg/ml) Broth microdilution [8]: 128 µg/mL (≈ 179 µM) | MIC (μg/ml) Broth microdilution [9]: >512 µg/mL

Dihydropacidamycin 1 [Compound 5]
MIC (μg/ml) Broth microdilution [1]: >512 µg/mL | MIC (μg/ml) Broth microdilution [2]: 32 µg/mL | MIC (μg/ml) Broth microdilution [3]: >512 µg/mL | MIC (μg/ml) Broth microdilution [4]: 16 µg/mL | MIC (μg/ml) Broth microdilution [5]: 64 µg/mL | MIC (μg/ml) Broth microdilution (Escherichia Coli MC 4100): 512 µg/mL | MIC (μg/ml) Broth microdilution [8]: 8 µg/mL | MIC (μg/ml) Broth microdilution [9]: >512 µg/mL
